Assays:
[1] = tested on: K-Ras G12C (NCI-H358 cells); assay: Potency assay: pERK (AlphaLISA SureFire or In-Cell Western); type: cell-based; conditions: Homo sapiens, NCI-H358; H358 KRAS G12C; read-out: pERK EC50
In short: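 NCI-H358 cells plated overnight, then treated 4 h at 37 °C with 10-point 3-fold DMSO dilutions (10 mM top stock), in duplicate. pERK1/2 read by AlphaLISA SureFire Ultra lysate assay or by In-Cell Western with DRAQ5 DNA stain. IC50 from 4-parameter sigmoidal fit of signal vs log concentration.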

NRAS G12C = NRAS G12C (Homo sapiens, UniProt P01111+P62937, G12C); assay: Disruption of BRAF RBD interaction with Ras (FRET / MOA assay, with Cyclophilin A); type: biochemical; conditions: NRAS G12C; read-out: NRAS G12C FRET data IC50
NCI-H358 (K-Ras G12C) = assay: CellTiter-Glo cell viability assay, 5-day treatment; type: cell-based; conditions: Homo sapiens, NCI-H358, H358, K-Ras G12C; read-out: Additional H358 Cell Viability assay data (K-Ras G12C, IC50)
In short: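 Luminescence read-out after 5 days of compound exposure, with plates first brought to room temperature for roughly 30 minutes. Values are percent of averaged DMSO wells, fitted by four-parameter logistic regression.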

NRAS Q61K = NRAS Q61K (Homo sapiens, UniProt P01111+P62937, Q61K); assay: Disruption of BRAF RBD interaction with Ras (FRET / MOA assay, with Cyclophilin A); type: biochemical; conditions: NRAS Q61K; read-out: NRAS Q61K FRET data IC50
In short: (§1)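 TR-FRET in 25 mM HEPES pH 7.3, 100 mM NaCl, 5 mM MgCl2, 0.1% BSA: 25 μM Cyclophilin A, 12.5 nM His6-Ras-GMPPNP, 50 nM GST-BRAF RBD with compound (10-point 3-fold series from 30 μM), 3 h at 25° C. Anti-His Eu/anti-GST APC added, 1.5 h more; IC50 from decreased FRET ratio versus DMSO.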

NRAS Q61R = NRAS Q61R (Homo sapiens, UniProt P01111+P62937, Q61R); assay: as above; type: biochemical; conditions: NRAS Q61R; read-out: NRAS Q61R FRET data IC50
In short: as §1

KRAS G12C = KRAS G12C (Homo sapiens, UniProt P01116+P62937, G12C); assay: as above; type: biochemical; conditions: KRAS G12C; read-out: KRAS G12C FRET data IC50
In short: (§2)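 Compound-driven ternary complex formation between nucleotide-loaded K-Ras and Cyclophilin A was measured as loss of BRAF RBD binding. Compounds (10-point 3-fold series, top 30 μM final) were incubated 3 h at 25 °C, then anti-His Eu-W1024 (10 nM) and anti-GST allophycocyanin (50 nM) added for 1.5 h. IC50 was taken from the TR-FRET ratio decrease versus DMSO.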

KRAS G12D = KRAS G12D (Homo sapiens, UniProt P01116+P62937, G12D); assay: as above; type: biochemical; conditions: read-out: KRAS G12D FRET data, IC50
In short: as §2

KRAS G13C = KRAS G13C (Homo sapiens, UniProt P01116+P62937, G13C); assay: as above; type: biochemical; conditions: KRAS G13C; read-out: KRAS G13C FRET data IC50
In short: as §2

Sequence of NRAS Q61K (P01111 whole entry Q61K): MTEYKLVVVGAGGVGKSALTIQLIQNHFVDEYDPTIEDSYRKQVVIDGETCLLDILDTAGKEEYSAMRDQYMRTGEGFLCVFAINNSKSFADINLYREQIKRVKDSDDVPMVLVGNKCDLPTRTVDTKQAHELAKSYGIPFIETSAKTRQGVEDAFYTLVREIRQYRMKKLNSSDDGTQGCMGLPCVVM
Sequence of NRAS Q61K (P62937 whole entry): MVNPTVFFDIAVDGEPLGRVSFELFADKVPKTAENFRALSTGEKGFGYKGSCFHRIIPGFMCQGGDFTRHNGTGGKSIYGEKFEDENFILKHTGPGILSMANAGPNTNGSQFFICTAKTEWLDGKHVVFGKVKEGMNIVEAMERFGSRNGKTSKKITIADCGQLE
Sequence of NRAS Q61R (P01111 whole entry Q61R): as the sequence (P01111 whole entry Q61K) above, with K61R counted along it
Sequence of NRAS Q61R (P62937 whole entry): as the sequence (P62937 whole entry) above
Sequence of NRAS G12C (P01111 whole entry G12C): as the sequence (P01111 whole entry Q61K) above, with G12C, K61Q counted along it
Sequence of NRAS G12C (P62937 whole entry): as the sequence (P62937 whole entry) above
Sequence of KRAS G12D (P01116 1-169 isoform P01116-2 G12D limits assumed): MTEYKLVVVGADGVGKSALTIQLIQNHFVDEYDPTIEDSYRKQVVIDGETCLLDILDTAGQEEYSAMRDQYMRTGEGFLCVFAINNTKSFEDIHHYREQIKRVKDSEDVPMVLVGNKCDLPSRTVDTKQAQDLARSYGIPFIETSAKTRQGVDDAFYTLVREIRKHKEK
Sequence of KRAS G12D (P62937 whole entry): as the sequence (P62937 whole entry) above
Sequence of KRAS G12C (P01116 1-169 isoform P01116-2 G12C): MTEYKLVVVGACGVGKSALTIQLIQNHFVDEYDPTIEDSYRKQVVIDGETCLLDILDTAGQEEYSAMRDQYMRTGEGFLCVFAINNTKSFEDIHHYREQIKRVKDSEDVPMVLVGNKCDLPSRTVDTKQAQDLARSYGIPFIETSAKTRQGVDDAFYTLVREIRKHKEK
Sequence of KRAS G12C (P62937 whole entry): as the sequence (P62937 whole entry) above
Sequence of KRAS G13C (P01116 1-169 isoform P01116-2 G13C): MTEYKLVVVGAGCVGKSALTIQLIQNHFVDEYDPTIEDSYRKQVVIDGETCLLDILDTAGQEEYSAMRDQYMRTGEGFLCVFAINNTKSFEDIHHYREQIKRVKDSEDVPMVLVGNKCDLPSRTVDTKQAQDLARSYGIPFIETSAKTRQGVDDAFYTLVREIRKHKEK
Sequence of KRAS G13C (P62937 whole entry): as the sequence (P62937 whole entry) above

Structure (SMILES) | EC50 [1] | IC50 (NRAS G12C) | IC50 (NCI-H358 (K-Ras G12C)) | IC50 (NRAS Q61K) | IC50 (NRAS Q61R) | IC50 (KRAS G12C) | IC50 (KRAS G12D) | IC50 (KRAS G13C)
CO[C@@H](C)c1ncccc1-c1c2c3cc(ccc3n1CC(F)(F)F)-c1csc(n1)C[C@H](NC(=O)[C@H](C(C)C)N(C)C(=O)N1CCC3(CC1)CN(C(=O)/C=C/CF)C3)C(=O)N1CCCC(N1)C(=O)OCC(C)(C)C2 (stereo partly drawn) [Example A602] | < 5000 nM | 10 to 100 nM | < 10 nM | 10 to 100 nM | 10 to 100 nM |  |  | 
C=CC(=O)N1CCC[C@H]2CN(C(=O)N(C)[C@H](C(=O)N[C@H]3Cc4nc(cs4)-c4ccc5c(c4)c(c(-c4cccnc4[C@H](C)OC)n5CC)CC(C)(C)COC(=O)C4CCCN(N4)C3=O)C(C)C)C[C@H]21 (stereo partly drawn) [Example A618] | < 5000 nM | 100 to 1000 nM | 10 to 100 nM | 100 to 1000 nM | 100 to 1000 nM |  |  | 
C=CC(=O)N(C)CCC1CCN(C(=O)N(C)[C@H](C(=O)N[C@H]2Cc3nc(cs3)-c3ccc4c(c3)c(c(-c3cccnc3[C@H](C)OC)n4CC)CC(C)(C)COC(=O)C3CCCN(N3)C2=O)C(C)C)CC1 (stereo partly drawn) [Example A621] | < 5000 nM | 10 to 100 nM | < 10 nM | 10 to 100 nM | 10 to 100 nM |  |  | 
CCn1c(-c2cccnc2[C@H](C)OC)c2c3cc(ccc31)-c1cccc(n1)C[C@H](NC(=O)[C@H](C(C)C)N(C)C(=O)N1CCC13CN(C(=O)C#CC(C)(C)N(C)C)C3)C(=O)N1CCCC(N1)C(=O)OCC(C)(C)C2 (stereo partly drawn) [Example A623] | < 5000 nM | 100 to 1000 nM | 10 to 100 nM | 100 to 1000 nM | 1000 to 10000 nM |  |  | 
CCn1c(-c2cccnc2[C@H](C)OC)c2c3cc(ccc31)-c1csc(n1)C[C@H](NC(=O)[C@@H](F)COC1CN(C(=O)C#CC(C)(C)N(C)C)C1)C(=O)N1CCCC(N1)C(=O)OCC(C)(C)C2 (stereo partly drawn) [Example A626] | < 5000 nM | < 10 nM | 10 to 100 nM | 1000 to 10000 nM | 1000 to 10000 nM |  |  | 
C=CC(=O)N(C)CC1CCN(C(=O)N(C)[C@H](C(=O)N[C@H]2Cc3nc(cs3)-c3ccc4c(c3)c(c(-c3cccnc3[C@H](C)OC)n4CC)CC(C)(C)COC(=O)C3CCCN(N3)C2=O)C(C)C)CC1 (stereo partly drawn) [Example A629] | < 5000 nM | 10 to 100 nM | < 10 nM | 10 to 100 nM | 10 to 100 nM |  | 100 to 1000 nM | 10 to 100 nM
C=CC(=O)N(C)[C@H]1CN(C(=O)N(C)[C@H](C(=O)N[C@H]2Cc3nc(cs3)-c3ccc4c(c3)c(c(-c3cccnc3[C@H](C)OC)n4CC)CC(C)(C)COC(=O)C3CCCN(N3)C2=O)C(C)C)C[C@@H]1F (stereo partly drawn) [Example A632] | < 5000 nM | 10 to 100 nM | 100 to 1000 nM | 100 to 1000 nM | 100 to 1000 nM |  |  | 
C=CC(=O)N1CCCC2(CCN(C(=O)N(C)[C@H](C(=O)N[C@H]3Cc4nc(cs4)-c4ccc5c(c4)c(c(-c4cccnc4[C@H](C)OC)n5CC)CC(C)(C)COC(=O)C4CCCN(N4)C3=O)C(C)C)CC2)C1 (stereo partly drawn) [Example A635] | < 5000 nM | 100 to 1000 nM | 100 to 1000 nM | 100 to 1000 nM | 100 to 1000 nM |  |  | 
C=CC(=O)N1CC2(CCN2C(=O)N(C)[C@H](C(=O)N[C@H]2Cc3cccc(n3)-c3ccc4c(c3)c(c(-c3cccnc3[C@H](C)OC)n4CC)CC(C)(C)COC(=O)C3CCCN(N3)C2=O)C(C)C)C1 (stereo partly drawn) [Example A636] | < 5000 nM | 10 to 100 nM | < 10 nM | 100 to 1000 nM | 100 to 1000 nM |  |  | 
C=CC(=O)N1CC[C@H](C(=O)N(C)[C@@H](CC(F)(F)F)C(=O)N[C@H]2Cc3cccc(c3)-c3ccc4c(c3)c(c(-c3cccnc3[C@H](C)OC)n4CC)CC(C)(C)COC(=O)C3CCCN(N3)C2=O)C1 (stereo partly drawn) [Example A639] | < 5000 nM | 100 to 1000 nM | 100 to 1000 nM | 1000 to 10000 nM | 1000 to 10000 nM |  |  | 
C=CC(=O)N1CC[C@H](C(=O)N(C)[C@H](C(=O)N[C@H]2Cc3cccc(c3)-c3ccc4c(c3)c(c(-c3cccnc3[C@H](C)OC)n4CC)CC(C)(C)COC(=O)C3CCCN(N3)C2=O)[C@H](C)C(F)(F)F)C1 (stereo partly drawn) [Example A641] | < 5000 nM | 100 to 1000 nM | 10 to 100 nM | 1000 to 10000 nM | 1000 to 10000 nM |  |  | 
C=CC(=O)N1CC2[C@@H](C1)CN2C(=O)N(C)[C@H](C(=O)N[C@H]1Cc2nc(cs2)-c2ccc3c(c2)c(c(-c2cccnc2[C@H](C)OC)n3CC)CC(C)(C)COC(=O)[C@@H]2CCCN(N2)C1=O)C(C)C (stereo partly drawn) [Example A686] | < 5000 nM | 10 to 100 nM | < 10 nM | 10 to 100 nM | 100 to 1000 nM |  |  | 

Second part, led by results:

EC50 [1] | IC50 (NRAS G12C) | IC50 (NCI-H358 (K-Ras G12C)) | IC50 (NRAS Q61K) | IC50 (NRAS Q61R) | IC50 (KRAS G12C) | Structure (SMILES) | IC50 (KRAS G12D) | IC50 (KRAS G13C)
< 5000 nM | < 10 nM | < 10 nM | 1000 to 10000 nM | 1000 to 10000 nM |  | C=CC(=O)Nc1cnc(OC[C@H](C(=O)N[C@H]2Cc3cccc(c3)-c3ccc4c(c3)c(c(-c3cccnc3[C@H](C)OC)n4CC)CC(C)(C)COC(=O)C3CCCN(N3)C2=O)C(C)C)n1C (stereo partly drawn) [Example A600] |  | 
< 5000 nM | < 10 nM | < 10 nM | > 10000 nM | > 10000 nM | 10 to 100 nM | CCn1c(-c2cccnc2[C@H](C)OC)c2c3cc(ccc31)N1CCC[C@@H](C[C@H](NC(=O)[C@H](C(C)C)N(C)C(=O)C3(F)CCN(C(=O)C#CC(C)(C)N(C)C)CC3)C(=O)N3CCCC(N3)C(=O)OCC(C)(C)C2)C1 [Example A616] | > 10000 nM | 
< 5000 nM | 10 to 100 nM | 10 to 100 nM | > 10000 nM | > 10000 nM |  | CCn1c(-c2cccnc2[C@H](C)OC)c2c3cc(ccc31)N1CCC[C@@H](C[C@H](NC(=O)[C@H](C(C)C)N(C)C(=O)C3CCN(C(=O)C#CC(C)(C)N4CCC4)C3)C(=O)N3CCCC(N3)C(=O)OCC(C)(C)C2)C1 (stereo partly drawn) [Example A617] |  | 
< 5000 nM | 100 to 1000 nM | 10 to 100 nM | 100 to 1000 nM | 100 to 1000 nM |  | C=CC(=O)N1CCC[C@@H]2CN(C(=O)N(C)[C@H](C(=O)N[C@H]3Cc4nc(cs4)-c4ccc5c(c4)c(c(-c4cccnc4[C@H](C)OC)n5CC)CC(C)(C)COC(=O)C4CCCN(N4)C3=O)C(C)C)C[C@@H]21 (stereo partly drawn) [Example A619] |  | 
< 5000 nM | < 10 nM | < 10 nM | 10 to 100 nM | 100 to 1000 nM |  | C=CC(=O)N1CC2(C1)OCCN2C(=O)N(C)[C@H](C(=O)N[C@H]1Cc2nc(cs2)-c2ccc3c(c2)c(c(-c2cccnc2[C@H](C)OC)n3CC)CC(C)(C)COC(=O)C2CCCN(N2)C1=O)C(C)C (stereo partly drawn) [Example A620] |  | 
< 5000 nM | 100 to 1000 nM | 10 to 100 nM | 100 to 1000 nM | 100 to 1000 nM |  | CCn1c(-c2cccnc2[C@H](C)OC)c2c3cc(ccc31)-c1csc(n1)C[C@H](NC(=O)[C@H](C(C)C)N(C)C(=O)N1C[C@@H]3CN(C(=O)C#CC(C)(C)N(C)C)CC[C@@H]31)C(=O)N1CCCC(N1)C(=O)OCC(C)(C)C2 (stereo partly drawn) [Example A625] |  | 
< 5000 nM | < 10 nM | < 10 nM | > 10000 nM | > 10000 nM |  | CCn1c(-c2cccnc2[C@H](C)OC)c2c3cc(ccc31)-c1csc(n1)C[C@H](NC(=O)[C@H](F)COC1CN(C(=O)C#CC(C)(C)N(C)C)C1)C(=O)N1CCCC(N1)C(=O)OCC(C)(C)C2 (stereo partly drawn) [Example A627] |  | 
< 5000 nM | < 10 nM | 10 to 100 nM | > 10000 nM | > 10000 nM |  | CO[C@@H](C)c1ncccc1-c1c2c3cc(ccc3n1CC(F)(F)F)N1CCO[C@@H](C[C@H](NC(=O)[C@H](C(C)C)N3CC[C@@]4(CCN(C(=O)C#CC(C)(C)N(C)C)C4)C3=O)C(=O)N3CCCC(N3)C(=O)OCC(C)(C)C2)C1 [Example A628] |  | 
< 5000 nM | 10 to 100 nM | < 10 nM | 10 to 100 nM | 100 to 1000 nM |  | C=CC(=O)N(C)[C@H]1CN(C(=O)N(C)[C@H](C(=O)N[C@H]2Cc3nc(cs3)-c3ccc4c(c3)c(c(-c3cccnc3[C@H](C)OC)n4CC)CC(C)(C)COC(=O)C3CCCN(N3)C2=O)C(C)C)C[C@H]1F (stereo partly drawn) [Example A631] |  | 
< 5000 nM | 100 to 1000 nM | 10 to 100 nM | 1000 to 10000 nM | 1000 to 10000 nM |  | C=CC(=O)N1CC[C@H](C(=O)N(C)[C@H](C(=O)N[C@H]2Cc3cccc(c3)-c3ccc4c(c3)c(c(-c3cccnc3[C@H](C)OC)n4CC)CC(C)(C)COC(=O)C3CCCN(N3)C2=O)[C@@H](C)C(F)(F)F)C1 (stereo partly drawn) [Example A640] |  | 
